Assay results from patent US20230227484A1, “PYRIMIDINE COMPOUND AS AXL INHIBITOR” (NANJING CHIA TAI TIANQING PHARMACEUTICAL CO., LTD., priority 2020, published 2023).

Experiments:
[1] = test system: MV-4-11 (human myeloid monocytic leukemia cell line); assay: Proliferation inhibition activity of compounds to MV-4-11 cells (CellTiter-Glo); format: cell-based; details: MV4-11 cells, 72 h dosing
Method: MV-4-11 (human myeloid monocytic leukemia cell line, culture medium: JIMDM+10% fetal bovine serum) is purchased from Cobioer Biosciences Co., Ltd and cultured in a 5% C02 incubator at 37° C. The cells in a logarithmic growth phase are plated in a 96-well plate at cell densities of 8000 cells/well, 6000 cells/well, 2000 cells/well, 2000 cells/well and 3000 cells/well, and a blank control group is set at the same time.
A compound to be tested and the positive drug are dissolved in dimethyl sulfoxide to prepare a 10 mM stock solution, which is then stored in −80° C. refrigerator for long-time storage. After the cells are plated for 24 h, the 10 mM compound stock solution is diluted with dimethyl sulfoxide to obtain a working solution having a 200-fold concentration (the highest concentration is 200 or 2000 μM, a 3-fold gradient, a total of 10 concentrations), and 3 μL of the working solution of each concentration is added to 197 μL of complete medium, and diluted into a working solution of 3-fold concentration. 50 μL of the working solution is then taken and added to a 100 μL cell culture medium (a final concentration of dimethyl sulfoxide is 0.5%, v/v), and two complex holes are set for each concentration. After 72 h of dosing treatment, 50 μl of CellTiter-Glo® (purchased from Promega) is added to each well. Fluorescence signals are measured on Envision (PerkinElmer) according to an operating procedure of the specification. GraphPad Prism 5 software log(inhibitor) vs. response-Variable slope is used to fit a dose-response curve, so as to obtain the IC50 value of the compound to the inhibition of cell-proliferation. The calculation formulation of the inhibition rate is as follows: […]
wherein: signal value of subject: a mean fluorescence signal of cell+medium+compound group; signal value of blank group: a mean fluorescence signal of medium group (containing 0.5% DMSO); signal value of negative control group: a mean fluorescence signal of cell+medium group (containing 0.5% DMSO).

AXL kinase = target: T1, AXL kinase (Homo sapiens, UniProt P30530); assay: Inhibitory activity of compound against AXL kinase (HTRF KinEASE); format: biochemical; details: AXL enzyme (Carna, 08-107), ATP 15 μM; "<" means below detection limit of the test
T1 construct: purchased Carna 08-107
T1 sequence (P30530 473-894 limits assumed): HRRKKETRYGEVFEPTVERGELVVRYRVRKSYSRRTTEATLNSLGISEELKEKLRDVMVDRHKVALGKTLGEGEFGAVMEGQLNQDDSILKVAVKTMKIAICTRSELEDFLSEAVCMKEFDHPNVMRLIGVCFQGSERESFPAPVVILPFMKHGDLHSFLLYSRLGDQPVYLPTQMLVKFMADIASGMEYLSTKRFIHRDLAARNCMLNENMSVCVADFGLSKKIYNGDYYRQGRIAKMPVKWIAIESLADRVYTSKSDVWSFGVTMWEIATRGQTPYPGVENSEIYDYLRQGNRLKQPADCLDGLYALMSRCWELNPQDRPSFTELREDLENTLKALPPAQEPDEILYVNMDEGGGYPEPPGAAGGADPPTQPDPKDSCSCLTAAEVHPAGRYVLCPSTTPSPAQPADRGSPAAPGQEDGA
Method: a) AXL enzyme (Carna, 08-107) configuration and addition: a 1×enzyme buffer (200 μL of Enzymatic buffer kinase 5×, 10 μL of 500 mM MgCl2, 10 μL of 100 mM DTT and 6.26 μL of 2500 nM SEB are added with […] of H2O, and prepared into 1 ml of 1× enzyme buffer) is used. AXL enzyme is diluted from 33.33 ng/uL to 0.027 ng/μL (1.67×, final conc.=0.016 ng/uL), a BioTek (MultiFlo FX) automatic liquid dispenser is used, and 6 μL of enzyme solution having a 1.67-fold final concentration is added respectively to compound wells and positive control wells; and 6 μL of 1×Enzymatic buffer is added to negative control wells.
b) Compound preparation and addition: the compounds and positive drugs prepared in the examples are diluted from 10 mM to 100 μM by DMSO, and titrated with a compound titrator (Tecan, D300e). The titrated solution is automatically sprayed by the titrator to each well to reach a required concentration, wherein the first concentration is 1 μM, and after ½ log dilution, a total of 8 concentrations are obtained. The resulting mixture is centrifuged at 2500 rpm for 30 s and incubated at room temperature for 15 min.
c) Preparation and addition of ATP and substrate: ATP (Sigma, A7699) is diluted with 1× enzyme buffer from 10 mM to 75 μM (5×), and the final concentration is 15 μM; the substrate TK Substrate 3-biotin (Cisbio, 61TK0BLC) is diluted with 1× enzyme buffer from 500 μM to 5 μM (5×), andthe final concentration is […]; ATP and the substrate are mixed in equal volume to obtain a mixed solution; the mixed solution is added to each well at 4 μL by using a BioTek automatic dispenser; centrifuged at 2500 rpm for 30 s, and reacted at 25° C. for 45 min.
d) Pirparation and addition of detection reagent: Streptavidin-XL665 (Cisbio, 610SAXLG) is diluted with HTRF KinEASE detection buffer (cisbio) from 16.67 μM to 250 nM (4×), and the final concentration is 62.5 nM; TK Antibody-Cryptate (Cisbio) is diluted with HTRF KinEASE detection buffer (cisbio) from 100× to 5×, and the final concentration is 1×; XL665 and Antibody are mixed in equal volume; the mixed solution is added to each well at 10 μL by using the BioTek automatic dispenser, centrifuged at 2500 rpm for 30 s, and reacted at 25° C. for 1 h. After the reaction is completed, the resulting product is detected by a multi-function plate reader HTR1p
GraphPad Prism 5 software log (inhibitor) vs. response-Variable slope is used to fit a dose-response curve to obtain the IC50 value of the compound to the inhibition of AXL kinase.
The calculation formula of the inhibition rate is as follows: […]

| Structure (SMILES) | IC50 [1] [nM] | IC50 (AXL kinase) [nM] |
| --- | --- | --- |
| COCc1ccc(Nc2nc(Nc3ccc4c(c3)CCC(N3CC5CC3C5)CC4)ncc2Cl)c(P(C)(C)=O)c1 (single isomer, unassigned) [Example 116 Isomer 116-1, (2-((2-((7-(2-azabicyclo[2.1.1]hexan-2-yl)-6,7,8,9-tetrahydro-5H-benzo[7]annulen-2-yl)amino)-5-chloropyrimidin-4-yl)amino)-5-(methoxymethyl)phenyl)dimethyl phosphine oxide] | 10.1 | 4.94 |
| CN(C)S(=O)(=O)c1ccccc1Nc1nc(Nc2ccc3c(c2)CC[C@@H](N2CCCC2)CC3)ncc1Cl [Example 1, (S)-2-((5-chloro-2-((7-(pyrrolidin-1-yl)-6,7,8,9-tetrahydro-5H-benzo[7]annulen-2-yl)amino)pyrimidin-4-yl)amino)-N,N-dimethyl benzenesulfonamide] | 6.83 | 0.33 |
| O=C(c1ccccc1Nc1nc(Nc2ccc3c(c2)CC[C@@H](N2CCCC2)CC3)ncc1Cl)N1CCCC1 [Example 6, (S)-(2-((5-chloro-2-((7-(pyrrolidin-1-yl)-6,7,8,9-tetrahydro-5H-benzo[7]annulen-2-yl)amino)pyrimidin-4-yl)amino)phenyl)(pyrrolidin-1-yl)methanone] | 3.38 | < 0.11 |
| CNC(=O)c1ccccc1Nc1nc(Nc2ccc3c(c2)CC[C@@H](N2CCCC2)CC3)ncc1Cl [Example 12, (S)-2-((5-chloro-2-((7-(pyrrolidin-1-yl)-6,7,8,9-tetrahydro-5H-benzo[7]annulen-2-yl)amino)pyrimidin-4-yl)amino)-N-methylbenzamide] | 1.44 | < 0.11 |
| NC(=O)c1ccccc1Nc1nc(Nc2ccc3c(c2)CC[C@@H](N2CCCC2)CC3)ncc1Cl [Example 13, (S)-2-((5-chloro-2-((7-(pyrrolidin-1-yl)-6,7,8,9-tetrahydro-5H-benzo[7]annulen-2-yl)amino)pyrimidin-4-yl)amino)benzamide] | 0.64 | < 0.11 |
| CC(C)(O)c1ccccc1Nc1nc(Nc2ccc3c(c2)CC[C@@H](N2CCCC2)CC3)ncc1Cl [Example 15, (S)-2-(2-((5-chloro-2-((7-(pyrrolidin-1-yl)-6,7,8,9-tetrahydro-5H-benzo[7]annulen-2-yl)amino)pyrimidin-4-yl)amino)phenyl)propan-2-ol] | 9.15 | 2.41 |
| NC(=O)c1cc(F)ccc1Nc1nc(Nc2ccc3c(c2)CC[C@@H](N2CCCC2)CC3)ncc1Cl [Example 16, (S)-2-((5-chloro-2-((7-(pyrrolidin-1-yl)-6,7,8,9-tetrahydro-5H-benzo[7]annulen-2-yl)amino)pyrimidin-4-yl)amino)-5-fluorobenzamide] | 0.97 | 0.12 |
| CNC(=O)c1cnccc1Nc1nc(Nc2ccc3c(c2)CC[C@@H](N2CCCC2)CC3)ncc1Cl [Example 20, (S)-4-((5-chloro-2-((7-(pyrrolidin-1-yl)-6,7,8,9-tetrahydro-5H-benzo[7]annulen-2-yl)amino)pyrimidin-4-yl)amino)-N-methylnicotinamide] | 5.96 | 1.93 |
| CC(C)S(=O)(=O)c1ccccc1Nc1nc(Nc2ccc3c(c2)CC[C@@H](N2CCCC2)CC3)ncc1Cl [Example 22, (S)-5-chloro-N^4-(2-(isopropylsulfo)phenyl)-N^2-(7-(pyrrolidin-1-yl)-6,7,8,9-tetrahydro-5H-benzo[7]annulen-2-yl)pyrimidine-2,4-diamine] | 6.76 | 0.11 |
| CS(=O)(=O)c1ccccc1Nc1nc(Nc2ccc3c(c2)CC[C@@H](N2CCCC2)CC3)ncc1Cl [Example 23, (S)-5-chloro-N^4-(2-(methylsulfonyl)phenyl)-N^2-(7-(pyrrolidin-1-yl)-6,7,8,9-tetrahydro-5H-benzo[7]annulen-2-yl)pyrimidine-2,4-diamine] | 7.11 | 1.38 |
| O=S(=O)(NC1CC1)c1ccccc1Nc1nc(Nc2ccc3c(c2)CC[C@@H](N2CCCC2)CC3)ncc1Cl [Example 24, (S)-2-((5-chloro-2-((7-(pyrrolidin-1-yl)-6,7,8,9-tetrahydro-5H-benzo[7]annulen-2-yl)amino)pyrimidin-4-yl)amino)-N-cyclopropyl benzenesulfonamide] | 6.89 | < 0.11 |
| Clc1cnc(Nc2ccc3c(c2)CC[C@@H](N2CCCC2)CC3)nc1Nc1ccccc1-c1ncn[nH]1 [Example 25, (S)—N^4-(2-(1H-1,2,4-triazol-5-yl)phenyl)-5-chloro-N^2-(7-(pyrrolidin-1-yl)-6,7,8,9-tetrahydro-5H-benzo[7]annulen-2-yl)pyrimidine-2,4-diamine] | 3.23 | 0.62 |
| O=C1NCc2cccc(Nc3nc(Nc4ccc5c(c4)CC[C@@H](N4CCCC4)CC5)ncc3Cl)c21 [Example 29, (S)-7-((5-chloro-2-(((7-(pyrrolidin-1-yl)-6,7,8,9-tetrahydro-5H-benzo[7]annulen-2-yl)amino))pyrimidin-4-yl)amino)isoindolin-1-one] | 3.23 | 0.34 |
| CS(=O)(=O)Nc1ccccc1Nc1nc(Nc2ccc3c(c2)CC[C@@H](N2CCCC2)CC3)ncc1Cl [Example 30, (S)—N-(2-((5-chloro-2-((7-(pyrrolidin-1-yl)-6,7,8,9-tetrahydro-5H-benzo[7]annulen-2-yl)amino)pyrimidin-4-yl)amino)phenyl)methanesulfonamide] | 2.64 | 1.05 |
| CNC(=O)c1ccccc1Nc1nc(Nc2ccc3c(c2)CCN(C2CCOCC2)CC3)ncc1Cl [Example 31, 2-((5-chloro-2-((3-(tetrahydro-2H-pyran-4-yl)-2,3,4,5-tetrahydro-1H-benzo[d]aza-7-yl)amino)pyrimidin-4-yl)amino)-N-methylbenzamide] | 1.46 | 0.8 |
| CNC(=O)c1ccccc1Nc1nc(Nc2ccc3c(c2)CCN(C2CCCC2)CC3)ncc1Cl [Example 32, 2-((5-chloro-2-((3-cyclopentyl-2,3,4,5-tetrahydro-1H-benzo(d)aza-7-yl)amino)pyrimidine-4-yl)amino)-N-methylbenzamide] | 1.98 | 0.75 |
